In patent US7635706B2, “5HT4-antagonistic 4-(aminomethyl)-piperidine benzamides” (Janssen Pharmaceutica NV, priority 2003, dated 2009):

Legend:
[1] = Metabolic stability in liver microsomes with NADPH-generating system, LC-MS analysis; type: in vitro ADME; conditions: compound 5 μM, active microsomes 1 mg/ml
Protocol: Sub-cellular tissue preparations were made according to Gorrod et al. (Xenobiotica 5: 453-462, 1975) by centrifugal separation after mechanical homogenization of tissue. Liver tissue was rinsed in ice-cold 0.1 M Tris-HCl (pH 7.4) buffer to wash excess blood. Tissue was then blotted dry, weighed and chopped coarsely using surgical scissors. The tissue pieces were homogenized in 3 volumes of ice-cold 0.1 M phosphate buffer (pH 7.4).
Tissue homogenates were centrifuged at 9000×g for 20 minutes at 4° C. The resulting supernatant was stored at −80° C. and is designated ‘S9’.
The S9 fraction can be further centrifuged at 100.000×g for 60 minutes (4° C.). The resulting supernatant was carefully aspirated, aliquoted and designated ‘cytosol’. The pellet was re-suspended in 0.1 M phosphate buffer (pH 7.4) in a final volume of 1 ml per 0.5 g original tissue weight and designated ‘microsomes’.
All sub-cellular fractions were aliquoted, immediately frozen in liquid nitrogen and stored at −80° C. until use.
For the samples to be tested, the incubation mixture contained PBS (0.1M), compound (5 μM), microsomes (1 mg/ml) and a NADPH-generating system (0.8 mM glucose-6-phosphate, 0.8 mM magnesium chloride and 0.8 Units of glucose-6-phosphate dehydrogenase). Control samples contained the same material but the microsomes were replaced by heat inactivated (10 minutes at 95 degrees Celsius) microsomes. Recovery of the compounds in the control samples was always 100%.
The mixtures were preincubated for 5 minutes at 37 degrees Celsius. The reaction was started at time point zero (t=0) by addition of 0.8 mM NADP and the samples were incubated for 60 minutes (P60). The reaction was terminated by the addition of 2 volumes of DMSO. Then the samples were centrifuged for 10 minutes at 900×g and the supernatants were stored at room temperature for no longer as 24 hours before analysis. All incubations were performed in duplo. Analysis of the supernatants was performed with LC-MS analysis. Elution of the samples was performed on a Xterra MS C18 (50×4.6 mm, 5 μm, Waters, US). An Alliance 2790 (Supplier: Waters, US) HPLC system was used. Elution was with buffer A (25 mM ammoniumacetate (pH 5.2) in H2O/acetonitrile (95/5)), solvent B being acetonitrile and solvent C methanol at a flow rate of 2.4 ml/min. The gradient employed was increasing the organic phase concentration from 0% over 50% B and 50% C in 5 min up to 100% B in 1 minute in a linear fashion and organic phase concentration was kept stationary for an additional 1.5 minutes. Total injection volume of the samples was 25 μl.
A Quatro triple quadrupole mass spectrometer fitted with and ESP source was used as detector. The source and the desolvation temperature were set at 120 and 350° C. respectively and nitrogen was used as nebuliser and drying gas. Data were acquired in positive scan mode (single ion reaction). Cone voltage was set at 10 V and the dwell time was 1 second.
Metabolic stability was expressed as % metabolism of the compound after 15 or 60 minutes (equation given as example) of incubation in the presence of active microsomes (E(act))

[2] = target: T1, h5-HT4b (Homo sapiens, UniProt Q13639); experiment: 5HT4 antagonism: [3H]GR113808 binding to membranes of h5-HT4b-HEK 293 clone 9 cells; conditions: [3H]GR113808 0.1 nM, h5-HT4b-HEK 293 membranes, 30 min at 25° C.
T1 construct: expressed in transfected cells; host or cells: HEK 293 (clone 9), membrane preparation
T1 sequence (Q13639 whole entry): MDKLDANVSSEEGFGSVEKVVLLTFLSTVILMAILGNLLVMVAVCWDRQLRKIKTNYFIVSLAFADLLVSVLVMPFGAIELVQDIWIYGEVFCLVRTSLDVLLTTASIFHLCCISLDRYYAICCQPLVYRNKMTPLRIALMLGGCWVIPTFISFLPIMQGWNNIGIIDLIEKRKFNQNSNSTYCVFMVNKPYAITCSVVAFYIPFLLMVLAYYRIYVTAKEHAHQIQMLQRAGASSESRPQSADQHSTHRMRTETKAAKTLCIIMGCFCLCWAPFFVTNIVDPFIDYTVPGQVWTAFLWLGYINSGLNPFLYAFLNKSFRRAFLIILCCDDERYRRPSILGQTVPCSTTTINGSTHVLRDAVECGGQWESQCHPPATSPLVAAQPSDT
Protocol: h5-HT4b-HEK 293 clone 9 cells were cultured in 150 mm Petri dishes and washed twice with cold PBS. The cells were then scraped from the plates and suspended in 50 mM Tris-HCl buffer, pH 7.4 and harvested by centrifugation at 23,500 rpm for 10 minutes. The pellet was resuspended in 5 mM Tris-HCl, pH 7.4 and homogenized with an Ultra Turrax homogenizer. The membranes were collected by centrifugation at 30,000 rpm for 20 min, resuspended in 50 mM Tris-HCl pH 7.4 and stored at −80° C. For the experiment, assay mixtures (0.5 ml) contained 50 μl of the tritiated ligand (5-HT4 antagonist [^3H]GR113808 0.1 nM) and 0.4 ml membrane preparation (15 μg protein/ml). 50 μl of 10% DMSO was added for total binding. 50 μl of 1 μM of (+)-trans-(1-butyl-3-hydroxy4-piperidinyl)methyl 8-amino-7-chloro-2,3-dihydro-1,4-benzodioxin-5-carboxylate (a proprietary 5HT4 agonist of Janssen Pharmaceutica) was added for determination of non-specific binding.
The [^3H]GR113808 assay buffer was 50 mM HEPES-NaOH, pH 7.4. The mixtures were incubated for 30 min at 25° C. The incubation was terminated by filtration over a Unifilter 96 GF/B presoaked in 0.1% polyethylenimine, followed by six washing steps with 50 mM HEPES-NaOH, pH 7.4.

For `CCCCN1CC[C@@H](CNC(=O)c2cc(Cl)c(Br)c3c2OCCCO3)[C@H](O)C1` [Co. No. 22], the “% metabolised compound” value ([1]; 60 minutes incubation) was 51 (60″) %.

In the case of `O=C(NC[C@@H]1CCN(CCCO)C[C@H]1O)c1cc(Cl)c(Br)c2c1OCCCO2` [Co. No. 24], the “% metabolised compound” value ([1]; 15 minutes incubation) is reported as 4 (15″) %.

For `O=C(NC[C@@H]1CCN(CCC2OCCO2)C[C@H]1O)c1cc(Cl)c(Cl)c2c1OCCCO2` [Co. No. 88], the “% metabolised compound” value ([1]; 15 minutes incubation) was 10 (15″) %.

For `CCCCN1CC[C@@H](CNC(=O)c2cc(Cl)cc3c2OCCCO3)[C@H](O)C1` [WO-00/37461 Co. No. 119, reference compound], the “% metabolised compound” value ([1]; 60 minutes incubation) was 68 (60″) %.

In the case of `O=C(NC[C@@H]1CCN(CCC2OCCO2)C[C@H]1O)c1cc(Cl)cc2c1OCCCO2` [WO-00/37461 Co. No. 143, reference compound], the “% metabolised compound” value ([1]; 15 minutes incubation) is reported as 26.5 (15″) %.

For `O=C(NC[C@@H]1CCN(CCCO)C[C@H]1O)c1cc(Cl)cc2c1OCCCO2` [WO-00/37461 Co. No. 144, reference compound], the “% metabolised compound” value ([1]; 15 minutes incubation) was 5 (15″) %.

Work on `CCCCN1CC[C@@H](CNC(=O)c2cc(Cl)c(Cl)c3c2OCCCO3)[C@H](O)C1` [compound 16] yielded an IC50 [2] of 1.23 nM and a melting point of 115 °C.

In the case of `Cc1ccc(C(=O)NC[C@@H]2CCN(CCCCNS(C)(=O)=O)C[C@H]2O)c2c1OCCCO2` [compound 107], the IC50 [2] is reported as 2.45 nM and the melting point is reported as 124 °C.

For `Cc1ccc(C(=O)NC[C@@H]2CCN(CCCC(N)=O)C[C@H]2O)c2c1OCCCO2` [compound 109], the IC50 [2] was 1.17 nM and the melting point was 160 °C.

For `COc1ccc(C(=O)NC[C@@H]2CCNC[C@H]2O)c2c1OCCO2` [compound 117], the IC50 [2] was 107 nM and the melting point was 160 °C.

Compound `COc1ccc(C(=O)NC[C@@H]2CCN(CCCC(N)=O)C[C@H]2OC)c2c1OCCO2` [compound 140] has an IC50 [2] of 33.9 nM and a melting point of 180 °C.

For `CCOc1ccc(C(=O)NC[C@@H]2CCN(CCCC#N)C[C@H]2O)c2c1OCCCO2` [compound 145], the IC50 [2] was 8.71 nM and the melting point was 131 °C.
